Details of data set [1]: method as in PMID 7084608. Conditions: cited from earlier work.
The conditions of data set [2]: obese humans, after 24 weeks of treatment; cited from earlier work.
Data set [3] concerns the target T1, porcine CCK-1 receptor (Sus scrofa, UniProt I3LFK5).
T1 construct: expressed in transfected cells; host or cells: COS-7
T1 sequence (I3LFK5 1-428): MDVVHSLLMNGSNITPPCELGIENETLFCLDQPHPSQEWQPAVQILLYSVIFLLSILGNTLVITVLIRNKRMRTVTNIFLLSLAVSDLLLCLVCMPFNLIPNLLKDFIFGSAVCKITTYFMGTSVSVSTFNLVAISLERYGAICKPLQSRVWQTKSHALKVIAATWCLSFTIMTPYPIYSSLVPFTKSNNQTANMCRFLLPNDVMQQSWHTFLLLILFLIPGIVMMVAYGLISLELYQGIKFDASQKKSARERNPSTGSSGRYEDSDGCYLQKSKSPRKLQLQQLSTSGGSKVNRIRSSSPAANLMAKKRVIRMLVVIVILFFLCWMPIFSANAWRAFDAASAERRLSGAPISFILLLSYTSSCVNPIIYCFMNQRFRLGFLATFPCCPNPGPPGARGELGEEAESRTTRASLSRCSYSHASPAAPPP
Put plainly: biochemical. To be noted: pig CCK-1 receptor over-expressed in COS-7 cells, SPA, n = 3; read-out: Binding Mean IC50.

In data set [4] the target is T1, porcine CCK-1 receptor. Put plainly: cell-based. Conditions: pig CCK-1 receptor in COS-7 cells, IP-One, n = 3; read-out: Activation Mean EC50.
The target of data set [5] is T2, porcine CCK-2 receptor (Sus scrofa, UniProt A0A287A2K5).
T2 construct: expressed in transfected cells; host or cells: COS-7
Put plainly: cell-based. To be noted: pig CCK-2 receptor in COS-7 cells, IP-One, n = 3; highest dose tested 100 nM; read-out: Activation Mean EC50.

T2 sequence (A0A287A2K5 whole entry): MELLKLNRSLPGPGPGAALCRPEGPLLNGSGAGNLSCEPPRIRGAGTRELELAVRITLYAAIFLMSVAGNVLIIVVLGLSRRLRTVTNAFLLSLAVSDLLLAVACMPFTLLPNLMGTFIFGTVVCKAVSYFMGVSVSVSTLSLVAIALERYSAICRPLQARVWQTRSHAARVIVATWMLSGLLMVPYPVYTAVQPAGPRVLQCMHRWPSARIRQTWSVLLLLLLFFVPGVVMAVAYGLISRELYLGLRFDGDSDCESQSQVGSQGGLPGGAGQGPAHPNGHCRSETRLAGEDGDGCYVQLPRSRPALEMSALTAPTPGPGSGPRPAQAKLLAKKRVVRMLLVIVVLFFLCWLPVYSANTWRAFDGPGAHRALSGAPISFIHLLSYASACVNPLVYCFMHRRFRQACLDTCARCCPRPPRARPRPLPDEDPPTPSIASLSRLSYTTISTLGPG

With Cholecystokinin [CCK], the Circulating half-life in data set [1] is on record as below 5 min.
Take `CC(C)N(C(=O)CN1C(=O)[C@H](NC(=O)Nc2cccc(C(=O)O)c2)C(=O)N(c2ccccc2)c2ccccc21)c1ccccc1` [GI181771X]: the Weight loss entry in data set [2] is given as “failed to induce weight loss”.
Turning to `CSCC[C@H](NC(=O)[C@H](Cc1ccc(OS(=O)(=O)O)cc1)NC(=O)[C@@H](N)CC(=O)O)C(=O)NCC(=O)N[C@@H](Cc1c[nH]c2ccccc12)C(=O)N[C@@H](CCSC)C(=O)N[C@@H](CC(=O)O)C(=O)N[C@@H](Cc1ccccc1)C(N)=O` [CCK-8], the IC50 (usually the point on the concentration scale where inhibition reaches its midpoint) in data set [3] was 0.199 nM. In addition, the EC50 – broadly, the concentration giving half of the maximal effect – turned out to be 0.221 nM in data set [4] and 0.325 nM in data set [5].
